# The source made the active and inactive calls. The rule behind the calls is not given here.
# How the values were obtained:
# 4T1 = assay: Antiproliferative activity against mouse 4T1 cells assessed as reduction in cell viability incubated for 2 days by MTT assay; assay type: functional, cell-based; conditions: 4T1, 48 h
# MCF7 [1] = assay: Antiproliferative activity against human MCF7 cells assessed as reduction in cell viability incubated for 2 days by MTT assay; assay type: functional, cell-based; conditions: MCF7, 48 h
# MDA-MB-231 [2] = assay: Antiproliferative activity against human MDA-MB-231 cells assessed as reduction in cell viability incubated for 2 days by MTT assay; assay type: functional, cell-based; conditions: MDA-MB-231, 48 h
# KB = assay: Antiproliferative activity against human KB cells assessed as reduction in cell viability incubated for 2 days by MTT assay; assay type: functional, cell-based; conditions: 48 h
# MIA PaCa-2 = assay: Antiproliferative activity against human MIA PaCa-2 cells assessed as reduction in cell viability incubated for 2 days by MTT assay; assay type: functional, cell-based; conditions: MIA PaCa-2, 48 h
# [3] = target: T1, Far upstream element-binding protein 2 (Homo sapiens) (UniProt Q92945); assay: Binding affinity to full length KSRP (unknown origin) incubated overnight by SDS-PAGE based immunoblot analysis
# T1 sequence (whole entry): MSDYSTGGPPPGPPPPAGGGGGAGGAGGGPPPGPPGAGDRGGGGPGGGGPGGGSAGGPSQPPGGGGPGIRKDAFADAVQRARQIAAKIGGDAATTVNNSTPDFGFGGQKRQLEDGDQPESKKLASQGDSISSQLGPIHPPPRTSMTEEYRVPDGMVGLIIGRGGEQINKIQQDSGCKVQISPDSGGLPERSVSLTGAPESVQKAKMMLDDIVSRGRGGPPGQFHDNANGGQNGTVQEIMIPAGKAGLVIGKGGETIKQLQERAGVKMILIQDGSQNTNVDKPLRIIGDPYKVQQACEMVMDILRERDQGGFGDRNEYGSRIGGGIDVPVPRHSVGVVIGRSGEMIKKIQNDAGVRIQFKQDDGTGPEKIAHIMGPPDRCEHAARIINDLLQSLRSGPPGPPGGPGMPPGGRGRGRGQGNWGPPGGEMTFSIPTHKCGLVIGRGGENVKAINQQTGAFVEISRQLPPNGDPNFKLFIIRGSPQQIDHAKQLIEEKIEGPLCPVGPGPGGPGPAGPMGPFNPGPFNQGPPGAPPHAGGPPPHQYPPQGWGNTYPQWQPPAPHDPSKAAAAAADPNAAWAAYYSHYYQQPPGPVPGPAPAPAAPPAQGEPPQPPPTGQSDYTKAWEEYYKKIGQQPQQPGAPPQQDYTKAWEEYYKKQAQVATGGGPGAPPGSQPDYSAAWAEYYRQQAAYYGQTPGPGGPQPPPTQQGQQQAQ
# [4] = target: T1, Far upstream element-binding protein 2 (Homo sapiens); assay: Binding affinity to full-length KSRP (1 to 715 residues) (unknown origin) extracted from Escherichia coli incubated overnight by SDS-PAGE based immunoblot analysis
# [5] = target: T1, Far upstream element-binding protein 2 (Homo sapiens); assay: Binding affinity to KSRP KH23 domain (214 to 413 residues) (unknown origin) extracted from Escherichia coli incubated overnight by SDS-PAGE based immunoblot analysis
# [6] = target: T2, Far upstream element-binding protein 2 (Homo sapiens, UniProt Q92945); assay: Binding affinity to recombinant full-length KSRP (unknown origin) assessed as dissociation constant by SPR analysis
# T2 sequence (Q92945 whole entry): T1 sequence (whole entry)
# NCI-H460 = assay: Antiproliferative activity against human NCI-H460 cells assessed as reduction in cell viability incubated for 2 days by MTT assay; assay type: functional, cell-based; conditions: NCI-H460, 48 h
# A549 = assay: Antiproliferative activity against human A549 cells assessed as reduction in cell viability incubated for 2 days by MTT assay; assay type: functional, cell-based; conditions: A549, 48 h
# HCT-116 = assay: Antiproliferative activity against human HCT-116 cells assessed as reduction in cell viability incubated for 2 days by MTT assay; assay type: functional, cell-based; conditions: HCT-116, 48 h
# U-87 MG = assay: Antiproliferative activity against human U-87 MG cells assessed as reduction in cell viability incubated for 2 days by MTT assay; assay type: functional, cell-based, U-87MG ATCC; conditions: 48 h
# [7] = Cytotoxicity against human L02 cells assessed as reduction in cell viability incubated for 2 days by MTT assay; assay type: toxicity, cell-based
# MCF7 [8] = assay: Inhibition of colony formation in human MCF7 cells assessed as reduction in colony count incubated for 2 weeks by crystal violet staining based analysis; assay type: functional, cell-based; conditions: dose 1.25-2.5 µM
# MDA-MB-231 [9] = assay: Inhibition of colony formation in human MDA-MB-231 cells assessed as reduction in colony count incubated for 2 weeks by crystal violet staining based analysis; assay type: functional, cell-based
# MCF7 [10] = assay: Antiproliferation against human MCF7 cells assessed as effect on cell proliferation at 0.625 uM incubated for 2 days by MTT assay; assay type: functional, cell-based; conditions: time 2.0 day
# MCF7 [11] = assay: Inhibition of cell migration in human MCF7 cells assessed as reduction in wound healing index at 0.625 uM measured after 72 hrs by scratch assay; assay type: functional, cell-based
# MDA-MB-231 [12] = assay: Inhibition of cell migration in human MDA-MB-231 cells assessed as reduction in wound healing index measured after 72 hrs by scratch assay; assay type: functional, cell-based
# MCF7 [13] = assay: Induction of apoptosis in human MCF7 cells assessed as viable cells at 0.62 uM incubated for 48 hrs by Annexin V-FITC/PI staining based flow cytometric analysis (reference value: 89.3 %); assay type: functional; conditions: read-out: Activity
# MCF7 [14] = assay: Induction of apoptosis in human MCF7 cells assessed as early apoptotic cells at 0.62 uM incubated for 48 hrs by Annexin V-FITC/PI staining based flow cytometric analysis (reference value: 5.12 %); assay type: functional
# MCF7 [15] = assay: Induction of apoptosis in human MCF7 cells assessed as late apoptotic cells at 0.62 uM incubated for 48 hrs by Annexin V-FITC/PI staining based flow cytometric analysis (reference value: 4.32 %); assay type: functional
# MCF7 [16] = assay: Induction of apoptosis in human MCF7 cells assessed as necrotic cells at 0.62 uM incubated for 48 hrs by Annexin V-FITC/PI staining based flow cytometric analysis (reference value: 1.22 %); assay type: functional
# MCF7 [17] = assay: Induction of apoptosis in human MCF7 cells assessed as viable cells at 1.25 uM incubated for 48 hrs by Annexin V-FITC/PI staining based flow cytometric analysis (reference value: 89.3 %); assay type: functional; conditions: read-out: Activity
# MCF7 [18] = assay: Induction of apoptosis in human MCF7 cells assessed as early apoptotic cells at 1.25 uM incubated for 48 hrs by Annexin V-FITC/PI staining based flow cytometric analysis (reference value: 5.12 %); assay type: functional
# MCF7 [19] = assay: Induction of apoptosis in human MCF7 cells assessed as late apoptotic cells at 1.25 uM incubated for 48 hrs by Annexin V-FITC/PI staining based flow cytometric analysis (reference value: 4.32 %); assay type: functional
# MCF7 [20] = assay: Induction of apoptosis in human MCF7 cells assessed as necrotic cells at 1.25 uM incubated for 48 hrs by Annexin V-FITC/PI staining based flow cytometric analysis (reference value: 1.22 %); assay type: functional
# MCF7 [21] = assay: Induction of apoptosis in human MCF7 cells assessed as viable cells at 2.5 uM incubated for 48 hrs by Annexin V-FITC/PI staining based flow cytometric analysis (reference value: 89.3 %); assay type: functional; conditions: read-out: Activity
# MCF7 [22] = assay: Induction of apoptosis in human MCF7 cells assessed as early apoptotic cells at 2.5 uM incubated for 48 hrs by Annexin V-FITC/PI staining based flow cytometric analysis (reference value: 5.12 %); assay type: functional
# MCF7 [23] = assay: Induction of apoptosis in human MCF7 cells assessed as late apoptotic cells at 2.5 uM incubated for 48 hrs by Annexin V-FITC/PI staining based flow cytometric analysis (reference value: 4.32 %); assay type: functional
# MCF7 [24] = assay: Induction of apoptosis in human MCF7 cells assessed as necrotic cells at 2.5 uM incubated for 48 hrs by Annexin V-FITC/PI staining based flow cytometric analysis (reference value: 1.22 %); assay type: functional
# Mitochondrial membrane = assay: Induction of mitochondrial membrane potential loss in human MCF7 cells assessed as increase in green fluorescence at 10 uM incubated for 24 hrs by JC-1 staining based automated microscopic immunofluorescence analysis; assay type: cell membranes
# MCF7 [25] = assay: Induction of ROS accumulation in human MCF7 cells assessed as increase in green fluorescence at 5 uM incubated for 24 hrs by DCFH-DA staining based automated microscopic immunofluorescence analysis; assay type: functional, cell-based
# MCF7 [26] = assay: Induction of morphological changes in human MCF7 cells assessed as cell membrane blebbing at 10 uM measured after 6 hrs by bright field microscopic; assay type: functional, cell-based
# MCF7 [27] = assay: Induction of DNA double-strand breaks in human MCF7 cells assessed as increase in gamma-H2AX foci formation at 10 uM incubated for 24 hrs by […] fluorescence microscopic analysis; assay type: functional, cell-based
# MCF7 [28] = assay: Induction of DNA double-strand breaks in human MCF7 cells assessed as enlarged nucleus at 10 uM incubated for 24 hrs by Hoechst 33342 staining based fluorescence microscopic analysis; assay type: functional, cell-based
# MCF7 [29] = assay: Induction of DNA double-strand breaks in human MCF7 cells assessed as appearance of nuclear fragments at 10 uM incubated for 24 hrs by Hoechst 33342 staining based fluorescence microscopic analysis; assay type: functional, cell-based
# MCF7 [30] = assay: Induction of DNA double-strand breaks in human MCF7 cells assessed as increase in gamma-H2AX expression incubated for 24 hrs by Western blotting; assay type: functional, cell-based
# [31] = Acute toxicity in BALB/c nu/nu mouse assessed as mortality rate at 30 mg/kg, ip administered for 7 days relative to control; assay type: organism-based; conditions: in vivo, time 7 day
structure (smiles),measurement,setting,value
O=C(CCCC[C@@H]1SC[C@@H]2NC(=O)N[C@@H]21)NCCCCNS(=O)(=O)c1ccc(-n2ncc(Cl)c(Cl)c2=O)cc1,IC50,4T1,2150 nM
same,IC50,MCF7 [1],8.28 µM
same,IC50,MDA-MB-231 [2],2.55 µM
same,IC50,KB,6770 nM
same,IC50,MIA PaCa-2,3220 nM
same,Activity,[3],Active
same,Activity,[4],Active
same,Activity,[5],Active
same,Kd,[6],17.7 µM
CC(C)C(CO)NS(=O)(=O)c1ccc(-n2ncc(Cl)c(Cl)c2=O)cc1 (stereo not drawn),IC50,4T1,1450 nM
same,IC50,MCF7 [1],5.18 µM
same,IC50,MDA-MB-231 [2],14.3 µM
same,IC50,NCI-H460,740 nM
same,IC50,KB,350 nM
same,IC50,A549,1270 nM
same,IC50,HCT-116,360 nM
same,IC50,U-87 MG,360 nM
same,IC50,MIA PaCa-2,420 nM
same,IC50 at 2 days,[7],3.64 µM
COCC(C)NS(=O)(=O)c1ccc(-n2ncc(NCCCCCNC(=O)CCCC[C@@H]3SC[C@@H]4NC(=O)N[C@@H]43)c(Cl)c2=O)cc1 (stereo partly drawn),IC50,KB,> 50000 nM
same,IC50,MIA PaCa-2,> 50000 nM
NCCCCNS(=O)(=O)c1ccc(-n2ncc(Cl)c(Cl)c2=O)cc1,IC50,4T1,> 10000 nM
same,IC50,MCF7 [1],> 20 µM
same,IC50,MDA-MB-231 [2],> 50 µM
CN(C)CCN(C)S(=O)(=O)c1ccc(-n2ncc(Cl)c(Cl)c2=O)cc1,IC50,4T1,1150 nM
same,IC50,MCF7 [1],3.79 µM
same,IC50,MDA-MB-231 [2],9.16 µM
same,IC50,NCI-H460,530 nM
same,IC50,KB,220 nM
same,IC50,A549,1000 nM
same,IC50,HCT-116,670 nM
same,IC50,U-87 MG,360 nM
same,IC50,MIA PaCa-2,390 nM
same,IC50 at 2 days,[7],4.97 µM
same,inhibition,MCF7 [8],Dose-Dependent Effect
same,inhibition,MDA-MB-231 [9],Active
same,Activity,MCF7 [10],inactive
same,inhibition,MCF7 [11],Active
same,inhibition,MDA-MB-231 [12],Active
same,viability at 0.62 µM,MCF7 [13],85.5%
same,Activity,MCF7 [14],8.46%
same,Activity,MCF7 [15],4.7%
same,Activity,MCF7 [16],1.3%
same,viability at 1.25 µM,MCF7 [17],83.5%
same,Activity,MCF7 [18],9.53%
same,Activity,MCF7 [19],5.47%
same,Activity,MCF7 [20],1.48%
same,viability at 2.5 µM,MCF7 [21],75.3%
same,Activity,MCF7 [22],17%
same,Activity,MCF7 [23],6.94%
same,Activity,MCF7 [24],0.71%
same,Activity,Mitochondrial membrane,Active
same,Activity,MCF7 [25],Active
same,Activity,MCF7 [26],Active
same,Activity,MCF7 [27],Active
same,Activity,MCF7 [28],Active
same,Activity,MCF7 [29],Active
same,Activity,MCF7 [30],Dose-Dependent Effect
same,mortality at 168 h,[31],100%
CNCCOc1cnn(-c2ccc(S(=O)(=O)N(C)CCOS(C)(=O)=O)cc2)c(=O)c1Cl,IC50,4T1,> 10000 nM
same,IC50,MCF7 [1],> 20 µM
same,IC50,MDA-MB-231 [2],> 50 µM
CCN(C)S(=O)(=O)c1ccc(-n2ncc(Cl)c(Cl)c2=O)cc1,IC50,4T1,11400 nM
same,IC50,MCF7 [1],4.1 µM
same,IC50,MDA-MB-231 [2],> 50 µM
CCN(CCOCCNC(=O)OC(C)(C)C)S(=O)(=O)c1ccc(-n2ncc(Cl)c(Cl)c2=O)cc1,IC50,4T1,> 10000 nM
same,IC50,MCF7 [1],> 20 µM
same,IC50,MDA-MB-231 [2],27.2 µM
